Experimental data as given in patent US20260226064A1, “POLYCYCLIC COMPOUND FOR TREATING NEUROLOGICAL DISEASES AND TUMORS” (Shanghai Institute of Organic Chemistry, Chinese Academy of …, priority 2023, published 2026).
Like-named read-outs stand apart in the source and are kept apart here.

Experiments:
[1] = Mouse Oral Pharmacokinetic Study; type: in vivo; settings: male CD1 mice, oral gavage 10 mg/kg; for Kp at 4 h: brain/plasma, read-out: Cbrain/Cplasma; for AUC(0-t): read-out: AUC0-4h
Description: Healthy male CD1 mice were used as experimental animals. The drug was administered by oral gavage at a dose of 10 mg/kg with a dosing volume of 10 mL/kg. Drug preparation: 10 mg of the compound was placed in 10 mL of 50% PEG400 or 20% HPb-cyclodextrin, ground and shaken to ensure uniform distribution of the compound in small particle size, followed by oral administration. Blood samples were collected at 30 min, 1 h, 2 h, and 4 h post-dose, and brain tissues were sampled at 4 h. EDTA dipotassium salt was added to the blood samples, and plasma was obtained after centrifugation. The supernatant was analyzed after dilution with 5 volumes of acetonitrile and centrifugation. The brain tissue homogenate was diluted with 3.5 volumes of acetonitrile, centrifuged, and the supernatant was collected for analysis. The samples were then analyzed by liquid chromatography-tandem mass spectrometry (LC-MS/MS): the instrument was AB Sciex 3500; the mobile phase consisted of 0.1% formic acid in water (A)/0.1% formic acid in acetonitrile (B), with gradient elution.

[2] = test system: acetylated microtubule in HEK293T cells; assay: Microtubule-Stabilizing Activity Assay (acetylated microtubule immunoblot, HEK293T, colchicine challenge); type: cell-based; settings: 1 h pre-incubation, then colchicine 1 μM 3 h, relative to CNDR-51657 at 500 nM = 1.00; for Microtubule-Stabilizing Activity 50 nM: compound 50 nM; for Microtubule-Stabilizing Activity 500 nM: compound 500 nM
Description: Compound solvent: 100% dimethyl sulfoxide (DMSO). Cell line: HEK293T (ATCC, CRL3216). Culture conditions: Cells were cultured in Dulbecco's Modified Eagle's Medium (DMEM) containing 10% fetal bovine serum and 1% penicillin/streptomycin. Cells were cultured at 37° C. in a Thermo-Fisher incubator with a humidified atmosphere of 5% carbon dioxide.
One day prior to the experiment, 100,000 cells were seeded at a density of 200,000 cells/ml in a 24-well plate.
On the day of the experiment, 20 μl of PBS phosphate buffer containing the test compound at experimental concentrations or an equivalent volume of DMSO was added to each well. After incubating at 37° C. for 1 hour, colchicine was added to each well at a final concentration of 1 μM, followed by an additional 3-hour incubation at 37° C. The plate was then placed on ice. The medium in each well was removed, and the cells were washed with ice-cold PBS. After aspirating the PBS, 0.1 mL of ice-cold RIPA lysis buffer (containing 0.5% sodium deoxycholate, 0.1% SDS, 1% NP-40, 5 mM EDTA, pH 8.0) was quickly added. Prior to use, a commercial protease inhibitor cocktail (1:500) and 1 μM deacetylase inhibitor Trichostatin A (Sangon Biotech Co., Ltd.) were added to the cell lysis buffer. The cell lysate were transferred to a 1.5 ml centrifuge tube, sonicated, and centrifuged at 13,000 rpm for 10 minutes. The supernatant was collected, and protein concentration was determined using the BCA assay.
Based on existing literature (Black, 1989; Kurt, 2011), acetylated microtubule was used as an indicator of microtubule polymerization to assess the microtubule-stabilizing efficacy of the compounds. HEK293T cell lysates were analyzed by SDS-PAGE (7.5% gel) and immunoblotted using acetylated microtubule antibody (1:20,000, Sigma-Aldrich, T7451) and α-microtubule antibody (1:2,000, Proteintech, 11224-1-AP). After incubation with fluorescent dye-conjugated IgG (1:40,000, Licor), the blots were visualized using an Odyssey-Dlx imaging system. Grayscale analysis was performed using ImageJ.
The compound activity was quantified with the microtubule-stabilizing activity of CNDR-51657 (C5) (Jane, 2016) at 500 nM as 1.00.

[3] = mouse, brain tissue at 4 h, read-out: Cbrain@4h
[4] = mouse, plasma at 4 h, read-out: Cpasma@4h

Row | SMILES | Microtubule-Stabilizing Activity 50 nM [2] | Microtubule-Stabilizing Activity 500 nM [2] | other results
1 | CNCCCOc1cc(F)c(-c2c(Cl)nc3ncnn3c2N[C@@H](C)C(F)(F)F)c(F)c1 [Cevipubulin, reference compound] | 1.65 | 1.68 | Cbrain/Cplasma ([1]; 4 h): 0.10; Cbrain@4h ([1]; brain tissue at 4 h): 38 ng/mL; Cmax ([1]; plasma): 660 ng/mL; Tmax ([1]; plasma): 54 min; Cpasma@4h ([1]; plasma at 4 h): 376 ng/mL; AUC0-4h ([1]; plasma, 0-4 h): 1826 ng·h/mL
2 | CNC1CC2(C1)CC(Oc1cc(F)c(-c3c(Cl)nc4ncnn4c3N[C@@H](C)C(F)(F)F)c(F)c1)C2 (stereo partly drawn) [Example 11, (S)-5-Chloro-6-(2,6-difluoro-4-((6-(methylamino)spiro[3.3]heptan-2-yl)oxy)phenyl)-N-(1,1,1-trifluoropropan-2-yl)-[1,2,4]triazolo[1,5-a]pyrimidin-7-amine] | 0.60 | 1.45 | Kp at 4 h ([1]; mouse, 4 h): 0.11; concentration at 4 h [1, 3]: 252 ng/mL; concentration at 4 h [1, 4]: 2200 ng/mL; AUC(0-t) ([1]; mouse, plasma, 0-4 h): 11200 ng·h/mL; Cmax ([1]; mouse, plasma, read-out: Cmax): 4140 ng/mL; Tmax ([1]; mouse, plasma, read-out: Tmax): 45 min
3 | C[C@H](Nc1c(-c2c(F)cc(OCC3[C@H]4CNC[C@@H]34)cc2F)c(Cl)nc2ncnn12)C(F)(F)F (stereo partly drawn) [Example 24, 6-(4-(((1R,5S,6r)-3-Azabicyclo[3.1.0]hex-6-yl)methoxy)-2,6-difluorophenyl)-5-chloro-N—((S)-1,1,1-trifluoropropan-2-yl)-[1,2,4]triazolo[1,5-a]pyrimidin-7-amine] | 0.86 | 1.63 | Kp at 4 h ([1]; mouse, 4 h): 0.17; concentration at 4 h [1, 3]: 147 ng/mL; concentration at 4 h [1, 4]: 874 ng/mL; AUC(0-t) ([1]; mouse, plasma, 0-4 h): 5960 ng·h/mL; Cmax ([1]; mouse, plasma, read-out: Cmax): 2640 ng/mL; Tmax ([1]; mouse, plasma, read-out: Tmax): 45 min
4 | C[C@H](Nc1c(-c2c(F)cc(O[C@H]3C[C@@H]4CN(C)C[C@@H]4C3)cc2F)c(Cl)nc2ncnn12)C(F)(F)F [Example 43, 5-Chloro-6-(2,6-difluoro-4-(((3aR,5s,6aS)-2-methyloctahydrocyclopenta[c]pyrrol-5-yl)oxy)phenyl)-N—((S)-1,1,1-trifluoropropan-2-yl)-[1,2,4]triazolo[1,5-a]pyrimidin-7-amine] | 0.09 | 2.69 | 
5 | CC(C)[C@@H](C)Nc1c(-c2c(F)cc(C#C[C@@H]3[C@H]4CNC[C@@H]34)cc2F)c(Cl)nc2ncnn12.Cl [Example 44, 6-(4-(((1R,5S,6s)-3-Azabicyclo[3.1.0]hexan-6-yl)ethynyl)-2,6-difluorophenyl)-5-chloro-N—((R)-3-methylbutan-2-yl)-[1,2,4]triazolo[1,5-a]pyrimidin-7-amine hydrochloride] |  | 1.6 | 
6 | C[C@@H](Nc1c(-c2c(F)cc(C#C[C@@H]3[C@H]4CNC[C@@H]34)cc2F)c(Cl)nc2ncnn12)C1CCC1.Cl [Example 45, 6-(4-(((1R,5S,6s)-3-Azabicyclo[3.1.0]hex-6-yl)ethynyl)-2,6-difluorophenyl)-5-chloro-N—((R)-1-cyclobutylethyl)-[1,2,4]triazolo[1,5-a]pyrimidin-7-amine hydrochloride] | 1.1 | 1.3 | 
7 | C[C@H](Nc1c(-c2c(F)cc(C#C[C@@H]3[C@H]4CNC[C@@H]34)cc2F)c(Cl)nc2ncnn12)C(F)(F)F.Cl [Example 47] | 1.23 | 1.38 | 
8 | Cl.Fc1cc(C#C[C@@H]2[C@H]3CNC[C@@H]23)cc(F)c1-c1c(Cl)nc2ncnn2c1NCC(F)(F)F [Example 49, 6-(4-(((1R,5S,6s)-3-Azabicyclo[3.1.0]hexan-6-yl)ethynyl)-2,6-difluorophenyl)-5-chloro-N-(2,2,2-trifluoroethyl)-[1,2,4]triazolo[1,5-a]pyrimidin-7-amine hydrochloride] | 1.04 | 1.74 | 
9 | CN1C[C@@H]2C(C#Cc3cc(F)c(-c4c(Cl)nc5ncnn5c4NCC(F)(F)F)c(F)c3)[C@@H]2C1 (stereo partly drawn) [Example 50, 5-Chloro-6-(2,6-difluoro-4-(((1R,5S,6s)-3-methyl-3-azabicyclo[3.1.0]hexan-6-yl)ethynyl)phenyl)-N-(2,2,2-trifluoroethyl)-[1,2,4]triazolo[1,5-a]pyrimidin-7-amine] | 2.0 | 2.78 | 
10 | CC(C)[C@@H](C)Nc1c(-c2c(F)cc(/C=C/[C@@H]3[C@H]4CNC[C@@H]34)cc2F)c(Cl)nc2ncnn12.Cl [Example 51, 6-(4-((E)-2-((1R,5S,6s)-3-Azabicyclo[3.1.0]hexan-6-yl)vinyl)-2,6-difluorophenyl)-5-chloro-N—((R)-3-methylbutan-2-yl)-[1,2,4]triazolo[1,5-a]pyrimidin-7-amine hydrochloride] |  | 1.85 | 
11 | C[C@@H](Nc1c(-c2c(F)cc(/C=C/[C@@H]3[C@H]4CNC[C@@H]34)cc2F)c(Cl)nc2ncnn12)C1CCC1.Cl [Example 52, 6-(4-((E)-2-((1R,5S,6s)-3-Azabicyclo[3.1.0]hexan-6-yl)vinyl)-2,6-difluorophenyl)-5-chloro-N—((R)-1-cyclobutylethyl)-[1,2,4]triazolo[1,5-a]pyrimidin-7-amine hydrochloride] | 1.41 | 1.69 | 
12 | C[C@H](Nc1c(-c2c(F)cc(/C=C/[C@@H]3[C@H]4CNC[C@@H]34)cc2F)c(Cl)nc2ncnn12)C(F)(F)F.Cl [Example 53, 6-(4-((E)-2-((1R,5S,6s)-3-Azabicyclo[3.1.0]hexan-6-yl)vinyl)-2,6-difluorophenyl)-5-chloro-N—((S)-1,1,1-trifluoropropan-2-yl)-[1,2,4]triazolo[1,5-a]pyrimidin-7-amine hydrochloride] | 1.23 | 1.38 | 
13 | Cl.Fc1cc(/C=C/[C@@H]2[C@H]3CNC[C@@H]23)cc(F)c1-c1c(Cl)nc2ncnn2c1NCC(F)(F)F [Example 54, 6-(4-((E)-2-((1R,5S,6s)-3-Azabicyclo[3.1.0]hexan-6-yl)vinyl)-2,6-difluorophenyl)-5-chloro-N-(2,2,2-trifluoroethyl)-[1,2,4]triazolo[1,5-a]pyrimidin-7-amine hydrochloride] | 1.56 | 3.12 | 
14 | C[C@@H](Nc1c(-c2c(F)cc(/C=C/[C@@H]3[C@H]4CN(C)C[C@@H]34)cc2F)c(Cl)nc2ncnn12)C1CCC1 [Example 56, 5-Chloro-N—((R)-1-cyclobutylethyl)-6-(2,6-difluoro-4-((E)-2-((1R,5S,6s)-3-methyl-3-azabicyclo[3.1.0]hexan-6-yl)vinyl)phenyl)-[1,2,4]triazolo[1,5-a]pyrimidin-7-amine] | 1.47 | 1.69 | 
15 | CC(C)[C@@H](C)Nc1c(-c2c(F)cc(/C=C/[C@@H]3[C@H]4CN(C)C[C@@H]34)cc2F)c(Cl)nc2ncnn12 [Example 59] | 0.61 | 1.87 | 
